{"source": "patent US20160199380A1", "about": "“Sigma Ligands For the Prevention or Treatment of Pain Induced by Chemotherapy” (Laboratorios del Dr. Esteve, S.A., priority 2009, published 2016)", "system": "Cisplatin-induced mechanical allodynia", "assay_type": "in vivo, Wistar rats", "conditions": "rats", "procedure": "Male Wistar rats (250-300 g) were obtained from Harlan-lberica (Barcelona, Spain). Upon arrival to our laboratory, animals were stored in standard transparent cages (40×28×25 cm) in environmentally controlled conditions (temperature=20° C,; humidity=60%) with a 12 h light/12 h dark cycle (lights on between 08:00 and 20:00 h). Animals were allowed free access to tap water and standard laboratory rat chow (Harlan-lberica, Barcelona, Spain).\nPrior to the experiment, rats were habituated to isolation. Rats received intraperitoneal injections one day per week for 5 weeks of cisplatin (1 mg/kg)+vehicle (control group for acute treatment) or cisplatin (1 mg/kg)+compound 63 (25 mg/kg). The last week (day 36) control group received an acute administration of 64 mg/kg of compound 63.\nMechanical allodynia was assessed before cisplatin administration (basal) and at the end of each experimental week (w1, w2, w3, w4). For the acute evaluation of compound 63 (w5), the mechanical allodynia was assessed 50 minutes after drug administration. On those days, rats were placed individually on an elevated iron mesh in a clear plastic cage and were allowed to adapt to the testing environment for at least 10 min. Habituation to this environment was also performed on the two days before assessment. […] Only robust and immediate withdrawal responses from the stimulus were recorded. […]"}
{"smiles": "Cc1cc(OCCN2CCOCC2)nn1-c1ccc2ccccc2c1", "note": "[Compound 63, 4-{2-[5-Methyl-1-(naphthalen-2-yl)-1H-pyrazol-3-yloxy]ethyl}morpholine]", "values": [{"measurement": "von Frey pressure response, acute treatment", "setting": "64 mg/kg on week 5, 50 minutes before the test, cisplatin 1 mg/kg once a week for 5 weeks", "result": "reverted the effect induced by cisplatin to basal levels"}, {"measurement": "development of mechanical allodynia, preventive treatment", "setting": "coadministration of 25 mg/kg twice a day, one day per week, same days as cisplatin 1 mg/kg", "result": "prevented the development of mechanical allodynia by cisplatin"}]}
